Measured values as given in US20230002774A1, “METHODS AND COMPOSTIONS FOR INHIBITING CORONAVIRAL REPLICATION” (California Institute of Technology, priority 2021, published 2023).
Where two headings read alike, the source gives them in different places.

Key:
[1] = tested on: HCoV-229E; experiment: Stage-limited inhibition assay, viral RNA at 8 hpi, HCoV-229E in H1299 cells; format: cell-based; parameters: dose or concentration left out as unconfirmed
Experimental: (§1) Total cell RNA was extracted using the MagMAX mirVana Total RNA Isolation Kit (Thermo Fisher Scientific) with KingFisher systems (Thermo Fisher Scientific). RNA was quantified using NanoDrop Lite Spectrophotometer (Thermo Fisher Scientific). Total RNA ([…]) was reverse transcribed using the High-Capacity cDNA Reverse Transcription Kit (Thermo Fisher Scientific). cDNA samples were used for quantitative TagMan PCR using TaqMan™ Universal Master Mix II, no UNG (Thermo Fisher Scientific), in an QuantStudio™ 5 System (Thermo Fisher Scientific). FAM-MGB-labeled TaqMan probes for the indicated genes were purchased from Thermo Fisher Scientific. The resulting data were analyzed using Excel and GraphPad Prism 8.
(§2) H1299 cells were treated with 0.1% DMSO, […] CB-5083, or […] of NMS-873 from 30 min prior to virus infection until 8 h post-infection. […] Cells were collected at 8 hpi for viral RNA determination.

[2] = tested on: HCoV-OC43; experiment: Stage-limited inhibition assay, viral RNA at 8 hpi, HCoV-OC43 in H1299 cells; format: cell-based; conditions: for viral RNA levels vs vehicle control, inhibitors throughout the experiment (group 2): 1 mM CB-5083 or 2 mM NMS-873, 30 min before infection to 8 hpi, harvested 8 hpi; for viral RNA levels, early treatment (group 3: pretreatment to 0 hpi): 1 mM CB-5083 or 2 mM NMS-873, harvested 8 hpi
Experimental: as §1, §2

[3] = tested on: HCoV-229E; format: cell-based
[4] = tested on: HCoV-229E; experiment: Titer of secreted virus in culture media by TCID50 in H1299 cells, HCoV-229E; format: cell-based
[5] = tested on: HCoV-229E
[6] = tested on: HCoV-OC43; conditions: HCoV-OC43, CB-5083 0.5 mM, 8 hpi
Experimental: Cells were fixed with cold 4% paraformaldehyde for 15 min followed by permeabilization/blocking with 10% FBS and 0.2% Triton X-100 for another 1 h. Cells were stained with mouse anti-dsRNA antibody clone rJ2 (1:50) (Sigma-Aldrich, MABE1134) followed by labeling with anti-mouse mouse secondary antibody conjugated to Alexa-488 (Thermo Fisher Scientific). Nuclei were stained with Hoechst. Fluorescent images were acquired using Thermo Scientific™ Invitrogen™ EVOS™ FL Auto 2 Imaging System.
Cells were treated with the indicated concentration of CB-5083 and infected with virus. After 1 h of infection, cells were washed three times with serum-free media and then returned to media containing 2% FBS and the same concentration of CB-5083.

[7] = tested on: H1299 cells; conditions: cell viability at 72 hpi, normalized to mock-infected DMSO-treated control
Experimental: (§3) Cells were seeded using 2×10^5 cells per well in 96-well plates and incubated overnight at 37° C. Cells were treated with the indicated concentration of CB-5083 and infected with virus or mock infected. After 1 h of infection, cells were washed three times with serum-free media and then cultured with media containing 10% FBS and the same concentration of CB-5083. Cultured media was replaced with fresh media at 8 hpi. At 72 hpi, cell viability was measured by CellTiter-Glo® Luminescent Cell Viability Assay (Promega).

[8] = tested on: HCoV-OC43; format: cell-based; parameters: HCoV-OC43 viral RNA level reduced: dose or concentration left out as unconfirmed; conditions: CB-5083 until 8 hpi, harvested 24 hpi
[9] = tested on: HCoV-OC43; experiment: Titer of secreted virus in culture media by TCID50 in H1299 cells, HCoV-OC43; format: cell-based
[10] = tested on: HCoV-infected H1299 cells; conditions: CB-5083 0.5 mM until 8 hpi, viability at 72 hpi
Experimental: as §3

SMILES | viral RNA levels vs vehicle control, inhibitors throughout the experiment (group 2) ([1]; HCoV-229E, 30 min before infection to 8 hpi, harvested 8 hpi) | viral RNA levels, early treatment (group 3: pretreatment to 0 hpi) ([1]; HCoV-229E, harvested 8 hpi) | viral RNA levels vs vehicle control, inhibitors throughout the experiment (group 2) [2] | viral RNA levels, early treatment (group 3: pretreatment to 0 hpi) [2] | HCoV-229E viral RNA level reduced [3] | HCoV-229E viral RNA level, effect of different doses [3] | viral titer of secreted HCoV-229E decreased [4] [%] | dsRNA signals (immunostaining) [5] | dsRNA signals (immunostaining) [6] | viral RNA levels vs vehicle control, inhibitors throughout the experiment (group 2) [1] | viral RNA levels, early treatment (group 3: pretreatment to 0 hpi) [1] | toxicity of the tested concentrations to H1299 cells [7] | HCoV-OC43 viral RNA level reduced [8] | HCoV-OC43 viral RNA level, effect of different doses [8] | viral titer of secreted HCoV-OC43 decreased [9] [%] | cell viability increased compared to HCoV-infected and DMSO-treated control [10] [%]
Cc1cc(OCc2nnc(SC3CCCC3)n2-c2cccnc2)ccc1-c1ccc(S(C)(=O)=O)cc1 [NMS-873, 3-[3-cyclopentylsulfanyl-5-[[3-methyl-4-(4-methylsulfonylphenyl)phenoxy]methyl]-1,2,4-triazol-4-yl]pyridine] | Extensive reduction | only minor or no effects | Extensive reduction | only minor or no effects | – | – | – | – | – | – | – | – | – | – | – | –
Cc1cc2c(C(N)=O)cccc2n1-c1nc2c(c(NCc3ccccc3)n1)COCC2 [CB-5083] | – | – | Extensive reduction | only minor or no effects | about 47% | reduced by CB-5083 in a dose-dependent manner | ~81 | lower dsRNA signals | lower dsRNA signals | Extensive reduction | only minor or no effects | non-toxic | about 40% | reduced by CB-5083 in a dose-dependent manner | ~85 | ~29
